Laboratory results taken from a melting point compilation (Tetko et al.; mined from patent text by program, amines drawn as free bases though some values may be those of a salt).

SMILES	melting point
CC(=O)OCC1OC(n2c3ncccc3c3c4c(c5c6ccccc6[nH]c5c32)C(=O)N(C)C4=O)C(OC(C)=O)C(OC(C)=O)C1OC(C)=O (configuration not stated)	302 to 304 °C
CCCNC(=O)C1(CC=Cc2ccccc2)c2ccccc2CCc2ccccc21	159 °C
COC(=O)c1sc(-c2ccccc2)c(N)c1N	148 to 150 °C
NS(=O)(=O)c1ccc(C2=C(c3ccc(Cl)cc3)CCC2)cc1	177 to 178 °C
N#Cc1cccc(-c2ccccc2O)c1	120 to 123 °C
CCOCOc1c(-c2ccc(C(=O)Nc3ccc(OC(C)=O)cc3)cc2)ccc2cc(OC)c(C34CC5CC(CC(C5)C3)C4)cc12	206 to 207 °C
CCOC(=O)c1nc2c(=O)[nH]c3cc(S(C)(=O)=O)ccc3n2c1C	> 250 °C
O=C(O)CC(Cc1c[nH]c2ccccc12)(C(=O)O)C(=O)O	184 to 185 °C
COC(=O)c1ccc(SC(Cn2ccnc2)c2ccccc2C(F)(F)F)cc1 (configuration not stated)	121 to 126 °C
O=C1O[C@@H](CNC(=S)C(F)F)CN1c1ccc(N2CCCS(=O)(=O)CC2)c(F)c1	128 to 130 °C
Cn1cccc1C1=CC(=O)c2ncccc2C1=O	167 to 168 °C
Cn1cc(C(=O)NCc2ccc(Cl)cc2)c(=O)c2cc(CN3CC[C@@H](O)C3)oc21	189 to 190 °C
ClCc1nn(-c2ccccc2)c2c1CCCC2	100 °C
Cc1nnc(-c2ccc3occ(-c4cc(Cl)ccc4Cl)c3c2)o1	185 to 186 °C
Cc1cc(N2CCC(=O)CC2)c2cc(C)c(-c3ccc(Cl)cc3Cl)n2n1	170 to 171 °C
O=C1N(c2cc(Cl)cc(Cl)c2)C(=O)C2(Cc3ccc(Br)cc3)CCCCN12 (configuration not stated)	129 °C
CCOC(=O)COC1CCN(C(=O)[C@H](C)CC(=O)c2ccc(C#N)cc2)CC1	97 to 98 °C
CCCCCCC1(CCCCCC)c2cc(C#N)ccc2-c2ccc(C#N)cc21	116 to 118 °C
Cn1c(=O)c(-c2ccc(Cl)cc2Cl)cc2c3cc(-c4nc(NS(C)(=O)=O)no4)ccc3n(C)c21	263 to 266 °C

SMILES	melting point
CC(C)NC1=NS(=O)(=O)c2c(Cl)cc(Cl)cc2N1	291 to 293 °C
CCOC(=O)[C@@H]1C[C@H]2C[C@H](COCC#N)CC[C@H]2CN1C(=O)OC (racemic)	263 °C
Cc1cc(SCc2sc(-c3ccc(C(F)(F)F)cc3)nc2C)ccc1OCC(=O)O	139 to 141 °C
COc1ccc2c(c1)N(c1ccccc1F)C(=O)C2(C)NC(=O)OCc1ccccc1 (configuration not stated)	149 to 151 °C
Cc1oc(-c2cccc(C#N)c2)nc1CCl	100 to 101 °C
O=C1Nc2ccccc2N(C(=O)C2CC2)c2cscc21	245 to 247 °C
COCOc1ccc(-c2ccc3c(c2)C(C)(C)CCC3(C)C)cc1-c1ccc(C(=O)O)cc1	137 to 140 °C
CCOC(Nc1ccccc1)(OCC)C1(Cl)C=CN=C(C(=O)c2ccc(Cl)cc2)C1 (configuration not stated)	123 to 124 °C
CC(C)n1nc(-c2cnc(N)nc2-c2cccc(F)c2)ccc1=O	220 to 222 °C
CCOC(=O)c1ccc(NC(=O)CC(c2ccc(Cl)cc2)c2ccc(Cl)cc2)cc1	152 to 155 °C
CNC(=O)c1cc2c(nc(C)n2C)c2c1CCC(c1ccccc1)O2 (configuration not stated)	291 to 292 °C
O=C(Nc1cc(-c2cccc(-c3ccccc3)c2)[nH]n1)C1Cc2ccccc2C1	108 to 110 °C
O=C1N(Cc2ccc(C(F)(F)F)o2)c2cccc(Cl)c2C12COc1cc3c(cc12)CCO3 (configuration not stated)	166 to 169 °C
CCCCOc1ccc(CC(C)C(=O)Oc2ccc(-c3ccc(C#N)cc3)cc2)cc1 (configuration not stated)	76.1 to 77.1 °C
Cc1ccc(C(Cl)=NOS(=O)(=O)CCCCl)cc1	56 to 58 °C
C[C@@H](N1CCN(c2ccc(-n3cnn(Cc4ccc(C(F)(F)F)cc4C(F)(F)F)c3=O)cc2)CC1)[C@](O)(Cn1cncn1)c1ccc(F)cc1F	146 to 148 °C
CC(=O)c1ccc2c(c1)C(n1ccccc1=O)C(O)C(C)(C)O2 (configuration not stated)	260 °C
COc1cc(Cl)ncn1	32 to 34 °C
